Here are results for 17 compounds from patent EP4803147A2.

Like-named read-outs stand apart in the source and are kept apart here.

`CCn1c(-c2cccnc2[C@H](C)OC)c2c3cc(ccc31)-c1csc(n1)C(N(C)C)[C@H](NC(=O)OCC1c3ccccc3-c3ccccc31)C(=O)N1CCC[C@H](N1)C(=O)OCC(C)(C)C2` (some centres unmarked): where the note is “from CCn1c(-c2cccnc2[C@H](C)OC)c(CC(C)(C)COC(=O)[C@@H]2CCCN(C(=O)[C@@H](NC(=O)OCC3c4ccccc4-c4ccccc43)C(c3nc(Br)cs3)N(C)C)N2)c2cc(B3OC(C)(C)C(C)(C)O3)ccc21, cc_pd bond, Pd(dtbpf)Cl2, toluene, 27.3 mM, 60.0 °C, 1.0 h”, the ring closure, yield of all isomers amounted to 19%. `CC1(C)COC(=O)[C@@H]2CCCN(N2)C(=O)[C@@H](NC(=O)OC(C)(C)C)Cc2nc(cs2)-c2ccc3[nH]c(I)c(c3c2)C1` came in with a ring closure, yield of all isomers (from CC(C)(CO)Cc1c(I)[nH]c2ccc(-c3csc(C[C@H](NC(=O)OC(C)(C)C)C(=O)N4CCC[C@@H](C(=O)O)N4)n3)cc12, ester bond, EDCI/HOBt/DIPEA, DCM, 17.57 mM, 25.0 °C, 16.0 h) of 45.9%. Consider `CC1(C)COC(=O)[C@@H]2CCCN(N2)C(=O)[C@@H](NC(=O)OC(C)(C)C)Cc2nc(cs2)-c2ccc3c(c2)c(c(-c2ccnc(N4CCN(C(=O)OCc5ccccc5)CC4)c2)n3C(C)(C)C#N)C1`, for which the ring closure, yield of all isomers (from CC(C)(CO)Cc1c(-c2ccnc(N3CCN(C(=O)OCc4ccccc4)CC3)c2)n(C(C)(C)C#N)c2ccc(-c3csc(C[C@H](NC(=O)OC(C)(C)C)C(=O)N4CCC[C@@H](C(=O)O)N4)n3)cc12, ester bond, EDCI/HOBT/DIPEA, DCM, 1.05 mM, 25.0 °C, 16.0 h) came out at 52%. For the compound `CCn1c(-c2cc(N3CCN(C(=O)OCc4ccccc4)CC3)cnc2[C@H](C)OC)c2c3cc(ccc31)-c1csc(n1)C[C@H](NC(=O)OC(C)(C)C)C(=O)N1CCC[C@H](N1)C(=O)OCC(C)(C)C2`, the ring closure, yield of all isomers (from CCn1c(-c2cc(N3CCN(C(=O)OCc4ccccc4)CC3)cnc2[C@H](C)OC)c(CC(C)(C)CO)c2cc(-c3csc(C[C@H](NC(=O)OC(C)(C)C)C(=O)N4CCC[C@@H](C(=O)O)N4)n3)ccc21, ester bond, EDCI/HOBt/DIPEA, MeCN, 10.34 mM, 25.0 °C, 16.0 h) came out at 54.8%.

As for `CCO[C@@H]1c2nc(cs2)-c2ccc3c(c2)c(c(-c2cc(C4=CCN(C(=O)OCc5ccccc5)CC4)cnc2[C@H](C)OC)n3CC)CC(C)(C)COC(=O)[C@@H]2CCCN(N2)C(=O)[C@H]1NC(=O)OC(C)(C)C`, the ring closure, yield of all isomers (from CCO[C@H](c1nc(Br)cs1)[C@H](NC(=O)OC(C)(C)C)C(=O)N1CCC[C@@H](C(=O)OCC(C)(C)Cc2c(-c3cc(C4=CCN(C(=O)OCc5ccccc5)CC4)cnc3[C@H](C)OC)n(CC)c3ccc(B4OC(C)(C)C(C)(C)O4)cc23)N1, cc_pd bond, Pd(DtBPF)Cl2, K3PO4, toluene, 40.7 mM, 70.0 °C, 1.0 h) amounted to 39%.

In turn, `CCO[C@@H]1c2nc(cs2)-c2ccc3c(c2)c(c(-c2cc(N4CCN(C(=O)OCc5ccccc5)CC4)cnc2[C@H](C)OC)n3CCOC(C)C)CC(C)(C)COC(=O)[C@@H]2CCCN(N2)C(=O)[C@H]1NC(=O)OC(C)(C)C` gave a ring closure, yield of all isomers (from CCO[C@H](c1nc(Br)cs1)[C@H](NC(=O)OC(C)(C)C)C(=O)N1CCC[C@@H](C(=O)OCC(C)(C)Cc2c(-c3cc(N4CCN(C(=O)OCc5ccccc5)CC4)cnc3[C@H](C)OC)n(CCOC(C)C)c3ccc(B4OC(C)(C)C(C)(C)O4)cc23)N1, cc_pd bond, Pd(dtbpf)Cl2, K3PO4, toluene, 16.0 mM, 65.0 °C, 2.0 h) of 44%. The compound `CCO[C@@H]1c2nc(cs2)-c2ccc3c(c2)c(c(-c2cc(N4CCN(C(=O)OCc5ccccc5)CC4)cnc2[C@H](C)OC)n3CCOC(C)C)CC2(CC2)COC(=O)[C@@H]2CCCN(N2)C(=O)[C@H]1NC(=O)OC(C)(C)C` gave a ring closure, yield of all isomers (from CCO[C@H](c1nc(Br)cs1)[C@H](NC(=O)OC(C)(C)C)C(=O)N1CCC[C@@H](C(=O)OCC2(Cc3c(-c4cc(N5CCN(C(=O)OCc6ccccc6)CC5)cnc4[C@H](C)OC)n(CCOC(C)C)c4ccc(B5OC(C)(C)C(C)(C)O5)cc34)CC2)N1, cc_pd bond, XPhos-Pd-G3/XPhos, K3PO4, toluene, 28.0 mM, 65.0 °C, 2.0 h) of 27%.

The compound `CO[C@@H](C)c1ncccc1-c1c2c3cc(ccc3n1CCOC1CCOCC1)-c1csc(n1)C[C@H](NC(=O)OC(C)(C)C)C(=O)N1CCC[C@H](N1)C(=O)OCC(C)(C)C2` yielded a ring closure, yield of all isomers (from CO[C@@H](C)c1ncccc1-c1c(CC(C)(C)CO)c2cc(-c3csc(C[C@H](NC(=O)OC(C)(C)C)C(=O)N4CCC[C@@H](C(=O)O)N4)n3)ccc2n1CCOC1CCOCC1, ester bond, EDCI/HOBt, DIPEA, DCM, 7.0 mM, 25.0 °C, 16.0 h) of 68%.

In the case of `CCn1c(-c2cccnc2[C@H](C)OC)c2c3cc(ccc31)-c1csc(n1)[C@@H](OCC(F)F)[C@H](NC(=O)OC(C)(C)C)C(=O)N1CCC[C@H](N1)C(=O)OCC(C)(C)C2`, the ring closure, yield of all isomers (from CCn1c(-c2cccnc2[C@H](C)OC)c(CC(C)(C)COC(=O)[C@@H]2CCCN(C(=O)[C@@H](NC(=O)OC(C)(C)C)[C@H](OCC(F)F)c3nc(Br)cs3)N2)c2cc(B3OC(C)(C)C(C)(C)O3)ccc21, cc_pd bond, Pd(DtBPF)Cl2, K3PO4, toluene, 10.0 mM, 60.0 °C, 1.0 h) came out at 59%. Turning to `CCn1c(-c2cccnc2[C@H](C)OC)c2c3cc(ccc31)-c1csc(n1)[C@@H](OCCN(C)C)[C@H](NC(=O)OC(C)(C)C)C(=O)N1CCC[C@H](N1)C(=O)OCC(C)(C)C2`, the ring closure, yield of all isomers (from CCn1c(-c2cccnc2[C@H](C)OC)c(CC(C)(C)COC(=O)[C@@H]2CCCN(C(=O)[C@@H](NC(=O)OC(C)(C)C)[C@H](OCCN(C)C)c3nc(Br)cs3)N2)c2cc(B3OC(C)(C)C(C)(C)O3)ccc21, cc_pd bond, Pd(dtbpf)Cl2, K3PO4, toluene, 57.0 mM, 60.0 °C, 4.0 h) was determined as 50%.

For the setting “from CCn1c(-c2cccnc2[C@H](C)OC)c(CC(C)(C)CO)c2cc(-c3csc(C[C@H](NC(=O)OC(C)(C)C)C(=O)N4CCC[C@@H](C(=O)O)N4)n3)ccc21, ester bond, EDCI/HOBt/DIPEA, DCM, 12.65 mM, 25.0 °C, 16.0 h”, `CCn1c(-c2cccnc2[C@H](C)OC)c2c3cc(ccc31)-c1csc(n1)C[C@H](NC(=O)OC(C)(C)C)C(=O)N1CCC[C@H](N1)C(=O)OCC(C)(C)C2` yielded a ring closure, yield of all isomers of 81%. Under “from CCn1c(-c2cccnc2[C@H](C)OC)c(CC(C)(C)COC(=O)[C@@H]2CCCN(C(=O)[C@@H](NC(=O)OC(C)(C)C)[C@H](OCC3=CCN(C(=O)OCc4ccccc4)CC3)c3nc(Br)cs3)N2)c2cc(B3OC(C)(C)C(C)(C)O3)ccc21, cc_pd bond, Pd(dtbpf)Cl2, K3PO4, toluene, 60.0 °C, 2.0 h”, `CCn1c(-c2cccnc2[C@H](C)OC)c2c3cc(ccc31)-c1csc(n1)[C@@H](OCC1=CCN(C(=O)OCc3ccccc3)CC1)[C@H](NC(=O)OC(C)(C)C)C(=O)N1CCC[C@H](N1)C(=O)OCC(C)(C)C2` had a ring closure, yield of all isomers of 32%. `CCO[C@@H]1c2nc(cs2)-c2ccc3c(c2)c(c(-c2cc(C4=CC5COCC(C4)N5C(=O)OCC4c5ccccc5-c5ccccc54)cnc2[C@H](C)OC)n3CC)CC(C)(C)COC(=O)[C@@H]2CCCN(N2)C(=O)[C@H]1NC(=O)OC(C)(C)C` returned a ring closure, yield of all isomers (from CCO[C@H](c1nc(Br)cs1)[C@H](NC(=O)OC(C)(C)C)C(=O)N1CCC[C@@H](C(=O)OCC(C)(C)Cc2c(-c3cc(C4=CC5COCC(C4)N5C(=O)OCC4c5ccccc5-c5ccccc54)cnc3[C@H](C)OC)n(CC)c3ccc(B4OC(C)(C)C(C)(C)O4)cc23)N1, cc_pd bond, Pd(dppf)Cl2.DCM, toluene, 205.0 mM, 80.0 °C, 3.0 h) of 49%. Turning to `CCO[C@@H]1c2nc(cs2)-c2ccc3c(c2)c(c(-c2cc([C@@H]4C[C@H]5COC[C@@H](C4)N5C(=O)OCC4c5ccccc5-c5ccccc54)cnc2[C@H](C)OC)n3CC)CC(C)(C)COC(=O)[C@@H]2CCCN(N2)C(=O)[C@H]1NC(=O)OC(C)(C)C`, under “from CCO[C@H](c1nc(Br)cs1)[C@H](NC(=O)OC(C)(C)C)C(=O)N1CCC[C@@H](C(=O)OCC(C)(C)Cc2c(-c3cc([C@@H]4C[C@H]5COC[C@@H](C4)N5C(=O)OCC4c5ccccc5-c5ccccc54)cnc3[C@H](C)OC)n(CC)c3ccc(B4OC(C)(C)C(C)(C)O4)cc23)N1, cc_pd bond, Pd(DtBPF)Cl2, toluene, 10.4 mM, 80.0 °C, 3.0 h”, the ring closure, yield of all isomers is 65%. The compound `CCn1c(-c2cccnc2[C@H](C)OC)c2c3cc(ccc31)C1=CC[C@H](COC)N(C1)C[C@H](NC(=O)OC(C)(C)C)C(=O)N1CCC[C@H](N1)C(=O)OCC(C)(C)C2` registered a ring closure, yield of all isomers (from CCn1c(-c2cccnc2[C@H](C)OC)c(CC(C)(C)COC(=O)[C@@H]2CCCN(C(=O)[C@H](CN3CC(Br)=CC[C@@H]3COC)NC(=O)OC(C)(C)C)N2)c2cc(B3OC(C)(C)C(C)(C)O3)ccc21, cc_pd bond, Pd(dppf)Cl2, K3PO4, toluene, 116.0 mM, 70.0 °C, 3.0 h) of 30%. In turn, `CCO[C@@H]1c2nc(cs2)-c2ccc3c(c2)c(c(-c2cccnc2[C@H](C)OC)n3CC)CC(C)(C)COC(=O)[C@@H]2CCCN(N2)C(=O)[C@H]1NC(=O)OC(C)(C)C` showed a ring closure, yield of all isomers (from CCO[C@H](c1nc(Br)cs1)[C@H](NC(=O)OC(C)(C)C)C(=O)N1CCC[C@@H](C(=O)OCC(C)(C)Cc2c(-c3cccnc3[C@H](C)OC)n(CC)c3ccc(B4OC(C)(C)C(C)(C)O4)cc23)N1, cc_pd bond, Pd(DTBpf)Cl2/K3PO4, toluene, 26.7 mM, 60.0 °C, 1.0 h) of 31%.

Compound `CCn1c(-c2cccnc2[C@H](C)OC)c2c3cc(ccc31)C1=CC(O[Si](c3ccccc3)(c3ccccc3)C(C)(C)C)CN(C1)C[C@H](NC(=O)OC(C)(C)C)C(=O)N1CCC[C@H](N1)C(=O)OCC(C)(C)C2` (some centres unmarked) returned a ring closure, yield of all isomers (from CCn1c(-c2cccnc2[C@H](C)OC)c(CC(C)(C)COC(=O)[C@@H]2CCCN(C(=O)[C@H](CN3CC(Br)=CC(O[Si](c4ccccc4)(c4ccccc4)C(C)(C)C)C3)NC(=O)OC(C)(C)C)N2)c2cc(B3OC(C)(C)C(C)(C)O3)ccc21, cc_pd bond, Pd(dppf)Cl2, K2CO3, toluene, 20.0 mM, 65.0 °C, 2.0 h) of 42%.
